“And” between values parts separate entries of the source, which are not always exact repeats. Equal values may be shown once.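 Five compound concentrations were applied to cells in 96-well plates for 48 hours; endpoints were derived by simple linear interpolation of the resulting dose-response curve. Here, GI50 denotes the concentration required for 50% inhibition of growth. TGI: concentration producing complete growth inhibition.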
Legend:
Assay in all cases: DTP human tumour cell line panel, 48 h
HCC-2998 colon = tested on: HCC-2998 colon
HOP-92 NSCLC = tested on: HOP-92 NSCLC
M14 melanoma = tested on: M14 melanoma
MOLT-4 leukemia = tested on: MOLT-4 leukemia
NCI-H226 lung = tested on: NCI-H226 lung
RXF 393 renal = tested on: RXF 393 renal
SF-268 CNS = tested on: SF-268 CNS
SN12C renal = tested on: SN12C renal
SW-620 colon = tested on: SW-620 colon
UACC-257 melanoma = tested on: UACC-257 melanoma

| Structure (SMILES) | GI50 (HCC-2998 colon) | TGI (HCC-2998 colon) | GI50 (HOP-92 NSCLC) | TGI (HOP-92 NSCLC) | GI50 (M14 melanoma) [µM] | TGI (M14 melanoma) | GI50 (MOLT-4 leukemia) [µM] | TGI (MOLT-4 leukemia) | GI50 (NCI-H226 lung) [µM] | TGI (NCI-H226 lung) | GI50 (RXF 393 renal) | TGI (RXF 393 renal) | GI50 (SF-268 CNS) [µM] | TGI (SF-268 CNS) [µM] | GI50 (SN12C renal) | TGI (SN12C renal) | GI50 (SW-620 colon) [µM] | TGI (SW-620 colon) | GI50 (UACC-257 melanoma) [µM] | TGI (UACC-257 melanoma) |
| --- | --- | --- | --- | --- | --- | --- | --- | --- | --- | --- | --- | --- | --- | --- | --- | --- | --- | --- | --- | --- |
| C#C[C@]1(O)CC[C@H]2[C@@H]3CC=C4c5nc(N)sc5CC[C@]4(C)[C@H]3CC[C@@]21C | 4.21 µM | 19.2 µM | 3.7 µM | 19.5 µM | 2.75 | 7.83 µM | 2.18 | 6.24 µM | 2.76 | 7.56 µM | 1.81 µM | 3.72 µM | 3.57 | 16.5 | 10.1 µM | 30.6 µM | 2.81 | 8.68 µM | 2.36 | 6.86 µM |
| COc1cccc(/C=N\NC(=O)C(C)SC(C)C(=O)N/N=C/c2cccc(OC)c2)c1 (stereo not drawn) | – | 47.5 µM | – | 38.8 µM | – | > 100 µM | – | > 100 µM | – | 47.5 µM | – | 28.6 µM | – | 97.5 | – | 42.8 µM | – | > 100 µM | – | > 100 µM |
| NC(=O)/C(=C/n1cnc(-c2cc(C(F)(F)F)cc(C(F)(F)F)c2)n1)c1cncnc1 | 0.74 µM | 5.34 µM | 0.159 µM | 8.23 µM | 0.715 | 7.86 µM | 0.0884 | 6.32 µM | 0.286 | 7.73 µM | 0.0706 µM | 0.573 µM | 0.516 | 11.9 | 0.814 µM | 12.7 µM | 0.175 | 7.03 µM | 0.86 | 8.99 µM |
| CCOc1ccc2cc(-c3nn(CC4CCNCC4)c4ncnc(N)c34)ccc2c1 | 17.1 µM | 31.5 µM | 4.96 µM | 24.9 µM | 14.1 | 29.3 µM | 4.73 | 19.8 µM | 10 | 33.4 µM | 3.96 µM | 17.1 µM | 12 | 28.2 | 11.5 µM | 33 µM | 15.2 | 31.4 µM | 16.8 | 31.1 µM |
| CC1OC(OC2C(O)C(O)C(O)C(O)C2O)C(N)CC1N=C(N)C(=O)O (stereo not drawn) | – | > 100 µM | – | > 100 µM | – | > 100 µM | – | > 100 µM | – | > 100 µM | – | > 100 µM | – | > 100 | – | > 100 µM | – | > 100 µM | – | > 100 µM |
| C=C1C[C@@H]2O[C@H]3[C@H]4[C@@H](CC[C@@](C)(OC(=O)CCC)[C@H]42)[C@@H](C)C(=O)O[C@@]3(C)CC[C@H]1OO | 15.9 µM | 29.4 µM | 13.3 µM | 26 µM | 23.7 | 45.3 µM | 11 | 23 µM | 17 | 32.2 µM | 27.6 µM | 88.6 µM | 12.8 | 26 | 13.7 µM | 26.5 µM | 19.6 | 37.1 µM | 26.2 | 76.7 µM |
| COc1ccc(C(O)c2cc3c(N)c(C(=O)Nc4cccc(Br)c4C)sc3nc2C)cc1 (stereo not drawn) | 0.426 µM | 2.84 µM | 0.261 µM | 18 µM | 0.109 | > 24 µM | 0.177 | > 33.3 µM | 0.989 | 17.9 µM | 0.0944 µM | 2.22 µM | 0.405 | > 27.8 | 0.246 µM | > 33.3 µM | 0.124 | > 33.3 µM | 0.307 | > 33.3 µM |
| CC1(C)C2CCC13C(=O)C1OC3(C2)C2C(=O)c3c(ccc4c3ccc3ccccc34)C(=O)C12 (stereo not drawn) | > 100 µM | > 100 µM | > 100 µM | > 100 µM | > 100 | > 100 µM | 1.1 | 10.6 µM | > 100 | > 100 µM | 84 µM | > 100 µM | 70.5 | > 100 | > 73.3 µM | > 100 µM | 56.5 | > 100 µM | > 29.2 | > 70.5 µM |
| CCOC(=O)/C(=C\c1ccc2ccccc2c1)P(=O)(OCC)OCC | 1.96 µM | 3.43 µM | 2.44 µM | 5.31 µM | 2.18 | 5.59 µM | 2.16 | 6.25 µM | 2.39 | 5.88 µM | 1.82 µM | 3.46 µM | 3.28 | 14.3 | 2.85 µM | 8.89 µM | 2.81 | 10.4 µM | 2.59 | 7.14 µM |
| NCCCN=c1ccc2c3c1c(O)c1c(O)ccc(=O)c1c3[nH]n2CCNCCO | 1.6 µM and 3.18 µM | 11.4 µM and 26.8 µM | 1.84 µM and 0.409 µM | 10.3 µM and 2.34 µM | 3.67 | 14.2 µM and 28 µM | 0.343 | 7.68 µM and 19.4 µM | 1.05 | 7.05 µM and 10.7 µM | 3.03 µM and 1.21 µM | 8.38 µM and 5.39 µM | – | 6.51 | 0.413 µM and 0.391 µM | 6.15 µM and 10.2 µM | – | 9.98 µM and 40.5 µM | 4.32 | 14.1 µM and 105 µM |
| CCOC(=O)c1c(CN2CCN(C)CC2)nc2ccc(Cl)cc2c1-c1ccccc1 | 1.86 µM | 4.4 µM | 6.64 µM | 22.3 µM | 1.91 | 3.78 µM | 2.92 | 12.9 µM | 15.6 | 34.9 µM | 5.33 µM | 15.4 µM | 10.2 | 23.5 | 11.6 µM | 25.9 µM | 9.35 | 21.6 µM | 2.03 | 3.98 µM |
| Cc1nc2ccccc2c(=O)n1/N=C(\N=Nc1cc(Cl)ccc1Cl)c1ccccc1 | – | > 100 µM | – | > 100 µM | – | > 100 µM | – | > 100 µM | – | > 100 µM | – | > 100 µM | – | > 100 | – | > 83.3 µM | – | > 73.8 µM | – | 66 µM |
| COc1cc2cc(Oc3cccc(NC(=O)Nc4cc(C(F)(F)F)cc(C(F)(F)F)c4)c3)c(C)nc2cc1OC | 1.53 µM | 3.15 µM | 1.12 µM | 3.9 µM | 1 | 2.88 µM | 1.13 | 4.04 µM | 1.8 | 3.91 µM | 2.06 µM | 4.79 µM | 1.62 | 3.68 | 0.591 µM | 2.09 µM | 1.94 | 5.71 µM | 2.48 | 5.49 µM |
